Measurements taken from patent publication US20210393745A1, “OLIGOMER EXTENDED INSULIN-FC CONJUGATES AND THEIR MEDICAL USE” (Novo Nordisk A/S, priority 2018, published 2021).

Assays:
[1] = system: primary rat adipocytes; assay: Lipogenesis in rat adipocytes; format: cell-based; details: relative to human insulin
Method: As a measure of in vitro potency of the insulin conjugatess of the invention, lipogenesis can be used. Primary rat adipocytes are isolated from the epididymale fat pads and incubated with 3H-glucose in buffer containing e.g. 0.1% fat free HSA and either standard (human insulin, HI) or insulin conjugates of the invention. The labelled glucose is converted into extractable lipids in a dose dependent way, resulting in full dose response curves. The result is expressed as relative potency (%) with 95% confidence limits of insulin of the invention compared to standard (HI).

[2] = target: T1, membrane-associated human IGF-1R (Homo sapiens, UniProt P08069); assay: IGF-1 receptor affinity on membrane associated receptors (SPA); format: binding; details: membrane-associated IGF-1R, relative to human insulin
T1 construct: expressed in transfected cells; host or cells: BHK cells, pZem219B vector, plasma membrane preparation
T1 sequence (P08069 31-736 limits assumed): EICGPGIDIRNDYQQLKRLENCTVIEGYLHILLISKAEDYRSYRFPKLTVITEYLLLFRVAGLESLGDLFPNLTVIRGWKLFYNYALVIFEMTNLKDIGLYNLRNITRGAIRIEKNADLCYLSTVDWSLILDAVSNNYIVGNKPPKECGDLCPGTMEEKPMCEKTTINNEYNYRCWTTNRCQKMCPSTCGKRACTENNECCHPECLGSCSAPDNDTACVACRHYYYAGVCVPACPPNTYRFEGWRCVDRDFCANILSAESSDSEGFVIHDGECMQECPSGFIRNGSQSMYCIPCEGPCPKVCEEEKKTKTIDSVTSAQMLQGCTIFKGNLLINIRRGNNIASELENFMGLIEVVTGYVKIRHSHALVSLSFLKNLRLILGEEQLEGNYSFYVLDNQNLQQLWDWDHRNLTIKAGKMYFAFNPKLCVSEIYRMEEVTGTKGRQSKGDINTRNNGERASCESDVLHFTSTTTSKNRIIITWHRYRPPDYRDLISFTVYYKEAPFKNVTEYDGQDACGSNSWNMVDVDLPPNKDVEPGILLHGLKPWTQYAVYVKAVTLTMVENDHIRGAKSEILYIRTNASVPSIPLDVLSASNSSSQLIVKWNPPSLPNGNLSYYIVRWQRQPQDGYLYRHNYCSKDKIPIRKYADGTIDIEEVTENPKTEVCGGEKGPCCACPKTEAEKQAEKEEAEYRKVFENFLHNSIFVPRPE
T1 sequence (P08069 741-1367 partner limits assumed): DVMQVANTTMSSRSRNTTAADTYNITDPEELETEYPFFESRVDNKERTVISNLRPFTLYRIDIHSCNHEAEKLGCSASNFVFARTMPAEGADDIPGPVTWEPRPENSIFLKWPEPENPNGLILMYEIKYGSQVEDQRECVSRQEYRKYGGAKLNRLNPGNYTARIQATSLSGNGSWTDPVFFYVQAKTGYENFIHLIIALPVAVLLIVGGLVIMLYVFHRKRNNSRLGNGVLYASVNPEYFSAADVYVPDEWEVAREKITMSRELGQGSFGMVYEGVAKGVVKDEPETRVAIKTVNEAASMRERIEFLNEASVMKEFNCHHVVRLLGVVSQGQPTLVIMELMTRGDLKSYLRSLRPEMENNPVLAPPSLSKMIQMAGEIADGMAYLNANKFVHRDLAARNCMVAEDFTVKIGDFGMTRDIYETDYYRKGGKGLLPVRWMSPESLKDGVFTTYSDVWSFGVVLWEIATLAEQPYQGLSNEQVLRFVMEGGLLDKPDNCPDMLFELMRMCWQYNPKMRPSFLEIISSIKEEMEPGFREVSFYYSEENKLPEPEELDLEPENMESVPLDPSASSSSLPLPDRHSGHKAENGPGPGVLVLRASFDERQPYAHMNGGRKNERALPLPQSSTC
Method: Membrane-associated human IR and IGF-1R are purified from BHK cells stably transfected with the pZem219B vector containing either the human IR-A, IR-B or IGF-IR insert. BHK cells are harvested and homogenized in ice-cold buffer (25 mM HEPES pH 7.4, 25 mM CaCl2 and 1 mM MgCl2, 250 mg/L bacitracin, 0.1 mM Pefablock). The homogenates are layered on a 41% (w/v) sucrose cushion and centrifuged for 75 minutes at 95000 g at 4° C. The plasma membranes are collected, diluted 1:5 with buffer (as above) and centrifuged again for 45 minutes at 40000 g at 4° C. The pellets are resuspended in a minimal volume of buffer and drawn through a needle (size 23) three times before storage at −80° C. until usage. The relative binding affinity for either of the membrane-associated human IR-A, IR-B or IGF-1R is determined by competition binding in a SPA setup. IR assays are performed in duplicate in 96-well OptiPlates (Perkin-Elmer Life Sciences). Membrane protein is incubated with gentle agitation for 150 minutes at 25° C. with 50 pM [^125IA14Y]-human insulin in a total volume of […] assay buffer (50 mM HEPES, 150 mM NaCl, 5 mM MgSO4, 0.01% Triton X-100, 0.1% (w/v) HSA (Sigma A1887), Complete EDTA-free protease inhibitors), 50 μg of wheat germ agglutinate (WGA)-coated PVT microspheres (GE Healthcare) and increasing concentrations of ligand. Assays are terminated by centrifugation of the plate at 2000 rpm for 2 minutes and bound radioactivity quantified by counting on a TopCount NXT (Perkin-Elmer Life Sciences).
IGF-1R assays are conducted essentially as for the IR binding assays except that membrane-associated IGF-1R and 50 pM [^125I-Tyr31]-human IGF-1 were employed.

[3] = system: streptozotocin treated Sprague-Dawley rats; assay: In vivo PD, blood glucose lowering in streptozotocin treated rats; design: species or system Sprague-Dawley rat; details: s.c. 30 nmol/kg, baseline corrected BG up to 10 days, difference from vehicle, mean
Method: (§1) Insulin-Fc conjugates were tested in vivo by subcutaneous (s.c.) administration to normal and streptozotocin (STZ) treated male Sprague-Dawley (SD) rats.
(§2) The rats were dosed s.c. in the neck region with a dose of 30 nmol/kg of the insulin-Fc conjugates. Blood samples for blood glucose and plasma insulin analysis were collected from the tongue vein up to 10 days post dosing. The insulin-Fc concentrations were measured by immuno-assay (LLOQ=1000 pM) and the resulting half-life values after s.c. dosing are shown in Table 4. The PK profiles for normal rats are shown in FIG. 3 and for streptozotocin treated rats in FIG. 6. Blood glucose (BG) was measured using Biosen S Line (EKF) and the BG and baseline corrected BG profiles for normal rats are shown in FIGS. 1 and 2 and for streptozotocin treated rats in FIGS. 4 and 5 respectively.

[4] = In vivo PK after s.c. dosing, normal rats; design: species or system Sprague-Dawley rat; details: s.c. 30 nmol/kg, mean value
Method: as §1, §2

[5] = Stability study: purity by anionic exchange chromatography; format: physicochemical; details: purity %(5° C.) − purity %(30° C.), 30 μM, pH 7.4
Method: Samples for stability studies were prepared by weighing out 8-10 mg freeze-dried material. The freeze-dried material was solubilized to […] in a premade solution A (5 mM phophate (pH 7.4), 140 mM NaCl and 70 ppm polysorbate 20). Protein concentration was determined using absorbance at 280 nm using a Nanodrop 2000 (Thermo Fisher Scientific Inc.) and theoretical extinction coefficients. Dilution into solution A was done to reach a final concentration of 30 μM.
Anionic exchange chromatography was performed on an Ultra-Performance Liquid Chromatography system (Waters Acquity H-Class) equipped with a fluorescence detector (Waters Acquity FLR Detector). A Bio SAX column with dimensions 50×4.6 mm from Agilent, kept at 30° C., was used in gradient elution mode. Mobile phase A was 5/95 (v/v), acetonitrile/water with 25 mM BIS-TRIS propane, pH 7.3 and mobile phase B was 5/95 (v/v), acetonitrile/water with 25 mM BIS-TRIS propane and 350 mM NaCl, pH 7.3. Injection volume was 3 μL. The flow rate was kept at 0.5 mL/min with a linear gradient from 10 to 47% B in 3 min followed by a linear gradient from 47 to 55% B in 30 min. Peaks were detected with an emission wavelength of […] and data processing is performed with the EMPOWER 3 software from Waters. Samples were analysed for purity as percent API in relation to all other species.
Reported as Δ purity %=purity %(5° C.)−purity % (30° C.).
Stability of Fc-insulin analogues was evaluated by comparing purity from anion exchange chromatography and formation of high molecular weight products (HMWP) at 5° C. (control) versus 30° C. (heat induced stress). […] The amount of HMWP was decreased by 0.5-2% in the stressed sample versus the control, i.e. some aggregated material has disassociated during incubation at 30° C.

[6] = system: normal Sprague-Dawley rats; assay: In vivo PD, blood glucose lowering in normal rats; design: species or system Sprague-Dawley rat; details: s.c. 30 nmol/kg, baseline corrected BG up to 10 days, difference from vehicle, mean
Method: as §1, §2

Substance	Lipogenesis Rel. pot. (%) [1]	IGF1R mem Rel. aff. (%) [2]	AOCBG STZ rat [3]	PK normal rat [T1/2, s.c. (h)] [4]	Δ purity [5]	AOCBG normal rat [6]
(A14E, A21G, A22(GQEP)11, A66G, A67Q, A68E, A69K^, A70P, B16H, B25H, B29R, desB30 human insulin)/(226A, 227G, 228P, 234A, 235K, 297E, 315Q, 384Q, des447 hIgG4-Fc(226-447))3,5-bis[(2-acetyl)amino]benzoyl Conjugate [Example 5.2]	1.14%	0.10%	4106 mM·h	38 h	6.7%	364 mM·h
(A14E, A21G, A22(GQEP)12, A70K^, A71P, B25H, B29R, desB30 human insulin)/(226A, 227G, 228P, 234A, 235K, 297E, 315Q, 384Q, des447 hIgG4-Fc(226-447))3,5-bis[(2-acetyl)amino]benzoyl Conjugate [Example 5.1]	2.86%	0.91%	3181 mM·h	20 h	3.3%	251 mM·h
